# Literature values, collected in US11298325B2, “Pharmaceutical compositions of pimobendan” (Boehringer Ingelheim Vetmedica GmbH, priority 2013, dated 2022).
# Columns and labels:
# [1] = pH 5
# [2] = low solubility and low permeability
smiles,measurement,setting,value
COc1ccc(-c2nc3ccc(C4=NNC(=O)CC4C)cc3[nH]2)cc1 (centres unmarked) [pimobendan],Solubility in water,[1],about 1 mg/liter
same,Class in the Biopharmaceutics Classification Systems,[2],Class IV
